For test [1], the target named is T1, Prostaglandin D2 receptor (Homo sapiens, UniProt Q13258).
T1 sequence (Q13258 whole entry): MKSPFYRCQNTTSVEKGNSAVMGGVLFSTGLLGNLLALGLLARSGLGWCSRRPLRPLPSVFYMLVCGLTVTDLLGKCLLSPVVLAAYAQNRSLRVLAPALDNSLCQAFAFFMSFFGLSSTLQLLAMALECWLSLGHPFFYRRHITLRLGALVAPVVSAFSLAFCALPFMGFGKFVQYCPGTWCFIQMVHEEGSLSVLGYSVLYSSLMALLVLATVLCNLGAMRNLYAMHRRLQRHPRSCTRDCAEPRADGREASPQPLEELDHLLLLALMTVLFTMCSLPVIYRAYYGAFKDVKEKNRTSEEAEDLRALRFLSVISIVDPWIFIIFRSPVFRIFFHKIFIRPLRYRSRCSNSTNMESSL
In words: Binding affinity against human recombinant […] D2 was determined using radioligand competition binding assay.

Test [2] deals with T2, Thromboxane A2 receptor (Homo sapiens, UniProt P21731).
T2 sequence (P21731 whole entry): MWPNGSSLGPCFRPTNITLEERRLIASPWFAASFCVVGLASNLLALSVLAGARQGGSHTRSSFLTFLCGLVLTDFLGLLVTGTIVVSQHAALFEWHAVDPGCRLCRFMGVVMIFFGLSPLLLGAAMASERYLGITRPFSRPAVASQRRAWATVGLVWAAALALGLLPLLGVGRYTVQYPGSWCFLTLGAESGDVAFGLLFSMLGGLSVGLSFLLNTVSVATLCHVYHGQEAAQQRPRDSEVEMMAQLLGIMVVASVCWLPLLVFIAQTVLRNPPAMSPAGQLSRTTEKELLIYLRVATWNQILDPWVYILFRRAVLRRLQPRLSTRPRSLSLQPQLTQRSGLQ
Description: Binding affinity against human recombinant Thromboxane A2 receptor was determined using radioligand competition binding assay.

Test [3] has as its target T1, Prostaglandin D2 receptor. In words: Binding affinity against human recombinant […] D2 in presence of 0.5% human serum albumin.

Turning to `CCOC(=O)c1cc(CSc2nc3ccccc3n2Cc2ccc(Cl)cc2)cc(C(=O)OCC)c1`, the figures for the inhibitory constant (Ki) in test [1] and in test [2] were above 43000 nM and above 71 µM, respectively.

On to `CSc1ccc(CSc2nc3ccccc3n2Cc2ccc(Cl)cc2)cc1`, for which the Ki is 550 nM in test [1] and above 73 µM in test [2].

As for `COC(=O)c1cccc(CSc2nc3ccccc3n2Cc2ccc(Cl)cc2)c1`, the inhibition constant Ki in test [1] turned out to be 1100 nM; in test [2], 9.3 µM.

Consider `CC(C)(O)c1ccc(CSc2nc3ccccc3n2Cc2ccc(Cl)cc2)cc1`, for which the Ki worked out at 140 nM in test [1] and 11.9 µM in test [2].

Consider `COC(=O)c1ccc(C[S+]([O-])c2nc3ccccc3n2Cc2ccc(Cl)cc2)cc1` (configuration not stated), for which the figures for the inhibitory constant (Ki) in test [3], in test [1] and in test [2] were 1500 nM, 550 nM and 3.1 µM, respectively.

Consider `COC(=O)c1ccc(-c2nc3ccccc3n2Cc2ccc(Cl)cc2)cc1`, for which the figures for the inhibition constant (Ki) in test [3], in test [1] and in test [2] were 800 nM, 8000 nM and 7 µM, respectively.

Regarding `COC(=O)c1ccc(CCc2nc3ccccc3n2Cc2ccc(Cl)cc2)cc1`, the Ki came out at 137 nM in test [3], 24 nM in test [1] and 2.2 µM in test [2].

Consider `NS(=O)(=O)c1ccc(CSc2nc3ccccc3n2Cc2ccc(Cl)cc2)cc1`, for which the inhibition constant (Ki) in test [1] was 1200 nM; in test [2] it was above 70 µM.

`COC(=O)c1ccc(CNc2nc3ccccc3n2Cc2ccc(Cl)cc2)cc1`: the Ki in test [1] was found to be 1100 nM; in test [2] it was 6 µM.

In the case of `CC(O)c1ccc(CSc2nc3ccccc3n2Cc2ccc(Cl)cc2)cc1` (configuration not stated), the inhibition constant (Ki) is 270 nM in test [1] and 1.5 µM in test [2].

As for `Fc1ccc(CSc2nc3ccccc3n2Cc2ccc(Cl)cc2)cc1`, the Ki in test [1] is above 42000 nM; in test [2], 6.1 µM.

On to `CC(=O)c1ccc(CSc2nc3ccccc3n2Cc2ccc(Cl)cc2)cc1`, for which the Ki in test [1] amounted to 300 nM; in test [2], 3.8 µM.

Consider `Cc1nc(-c2ccc(CSc3nc4ccccc4n3Cc3ccc(Cl)cc3)cc2)no1`, for which the inhibition constant Ki in test [1] was 96 nM; in test [2] it was above 74 µM.

As to `COC(=O)Cc1ccc(CSc2nc3ccccc3n2Cc2ccc(Cl)cc2)cc1`, the values for the Ki in test [1] and in test [2] were 330 nM and 1.5 µM, respectively.

Consider `O=C(O)c1ccc(CSc2nc3ccccc3n2Cc2ccc(Cl)cc2)cc1`, for which the figures for the Ki in test [1] and in test [2] were 3500 nM and 4.7 µM, respectively.

For the compound `CN(C)C(=O)c1ccc(CSc2nc3ccccc3n2Cc2ccc(Cl)cc2)cc1`, the Ki in test [1] was determined as 800 nM; in test [2] it was 2 µM.

With `COC(=O)c1ccc(Nc2nc3ccccc3n2Cc2ccc(Cl)cc2)cc1`, the results for the Ki in test [3], in test [1] and in test [2] were 5400 nM, 1500 nM and 0.9 µM, respectively.

As to `FC(F)(F)c1ccc(CSc2nc3ccccc3n2Cc2ccc(Cl)cc2)cc1`, the inhibition constant (Ki) in test [1] is 2600 nM; in test [2], above 73 µM.

With `Clc1ccc(Cn2c(SCc3ccccc3)nc3ccccc32)cc1`, the inhibitory constant (Ki) in test [1] was determined as 6700 nM; in test [2], 4.2 µM.

Turning to `N#Cc1ccc(CSc2nc3ccccc3n2Cc2ccc(Cl)cc2)cc1`, the Ki in test [1] amounted to 4200 nM; in test [2], 0.95 µM.

Turning to `COC(=O)c1ccc(/C=C/c2nc3ccccc3n2Cc2ccc(Cl)cc2)cc1`, the results for the Ki in test [3], in test [1] and in test [2] were 67 nM, 38 nM and above 75 µM, respectively.

On to `Cc1noc(-c2ccc(CSc3nc4ccccc4n3Cc3ccc(Cl)cc3)cc2)n1`, for which the results for the Ki in test [1] and in test [2] were 310 nM and above 74 µM, respectively.

On to `COC(=O)c1ccc(Cc2nc3ccccc3n2Cc2ccc(Cl)cc2)cc1`, for which the inhibition constant (Ki) in test [3] is above 12000 nM; in test [1] it was 6200 nM; in test [2], 4 µM.

On to `CS(=O)(=O)c1ccc(CSc2nc3ccccc3n2Cc2ccc(Cl)cc2)cc1`, for which the Ki in test [1] was found to be 1100 nM; in test [2], 2 µM.

As for `COC(=O)c1ccc(CSc2nc3ccccc3n2Cc2ccc(Cl)cc2)cc1`, the Ki was 297 nM in test [3], 73 nM in test [1] and 9.1 µM in test [2].

(Values after ChEMBL document CHEMBL1146646, “Benzimidazoles as new potent and selective DP antagonists for the treatment of allergic rhinitis” (Bioorg Med Chem Lett, 2004).)
